The values that follow come from patent US20130280392A1, “PROCESS FOR CONTROLLING MICROORGANISMS IN BEVERAGE PRODUCTS” (DeLaval Holding AB, priority 2011, published 2013).

Bounds are passed on as bounds.

A short description of data set [1]: Degradation of PAA in juices over time, residual PAA by titration with 0.1N sodium thiosulfate. Format: physicochemical. The settings on record: for PAA concentration (below detectable limit): after 10 min at 195° F. (90.5° C.); for half-life at 100 ppm: room temperature. As for the experimental part: The half life of PAA decreases with increasing temperature. The half life of 100 ppm solution of PAA in carrot juice (Brix=8.8) at room temperature is less than 20 min. Similarly, the half life of a 100 ppm solution of PAA in apple juice (Brix=11.4) at room temperature is less than 30 min. After 10 min at 195° F. (90.5° C.), the PAA concentration of a 20 ppm solution of PAA in either carrot (Brix=8.8) or apple juice (Brix=11.4) is below the detectable limit of 0.89 ppm by titration with 0.1N sodium thiosulfate. Thus, when the juice is pasteurized and sent to an evaporator for concentration, any remaining PAA in solution would be converted to acetic acid, water, and oxygen, thereby leaving no or substantially no PAA remaining in the final juice product 32. Briefly, during the titration process, any oxidizing species present in the sample converts a solution of potassium iodide to iodine in the presence of ammonium paramolybdate and phosphoric acid. Subsequently, a starch solution is added to form a deep blue color upon binding iodine. The PAA concentration can be calculated based on the volume of titrant needed to revert the deep blue color.
In this experiment, several juices were dosed with peracetic acid (PAA) (peroxyacetic acid 5.6%, hydrogen peroxide 26.5%) and kept at a controlled temperature (22° C. or 90° C.) for a given period of time to determine how the PAA would degrade over time. At the end of the given time period, the level of PAA remaining in the juice was measured by titration with 0.1N sodium thiosulfate. It can be seen that the PAA decomposed quite rapidly in the various juices, particularly when exposed to elevated temperatures.

In data set [2] the test system is Alicyclobacillus acidoterrestris. The data set can be described thus: Antimicrobial efficacy of PAA in organic apple and carrot juice, MPN viability count. Conditions: 22° C. It counts as cell-based. As for the experimental part:
In this experiment, the antimicrobial efficacy of PAA in organic apple and carrot juice was measured by challenging the juices with 1×10^7 CFU/ml of Alicyclobacillus acidoterrestris, a spore-forming thermophile commonly present in juice operations. Immediately following bacterial challenge, the juice was dosed with different concentrations of PAA and incubated at room temperature (22° C.) for 10 minutes without agitation. After the subscribed contact time, the PAA was neutralized with D/E broth and a viability count for each of the juices was performed using the most probable number technique (MPN).

In data set [3] the test system is Alicyclobacillus acidoterrestris ATCC 49025. The data set can be described thus: Germicidal efficacy of PAA and chlorine dioxide in dilute nutrient solution, apple juice and carrot juice, MPN viability count. Format: cell-based. The settings on record: for LR: 22° C., 10 minutes contact, inoculum 1.40×10^7 CFU/ml; for reduction in the bacteria: all treated samples of Table 3 (5 and 10 ppm; nutrient solution, apple juice, carrot juice). On the procedure:
In this experiment, the germicidal efficacy of various concentrations of PAA and chlorine dioxide (by dilution of CDG Solution 3000™, CDG Environmental LLC) at 22° C. after 10 minutes of contact time was determined in a dilute nutrient solution (Tryptone pancreatic digest of casein 1.0 g/L and NaCl 8.5 g/L), apple juice, and carrot juice. Alicyclobacillus acidoterrestris ATCC 49025 was used as the inoculum at a concentration of 1.40×10^7 CFU/ml. After the subscribed contact time, the PAA was neutralized with D/E broth and chlorine dioxide with a peroxide neutralizer, and a viability count for each of the juices was performed using the most probable number technique (MPN). The results are shown in Table 3, and graphically in FIG. 5.

Data set [4] can be described thus: Chlorine dioxide demand of apple and carrot juice (HACH DPD Method #10126). It counts as physicochemical. Conditions: 22° C., 10 minutes. On the procedure:
In this experiment, apple juice and carrot juice were exposed to pure and stable chlorine dioxide (CDG Solution 3000™, CDG Environmental, LLC) in order to determine their respective chlorine dioxide demands, as determined by HACH DPD Method for Chlorine dioxide (Method #10126). The juice samples were exposed to the chlorine dioxide under room temperature conditions (22° C.), and then the residual concentrations determined 10 minutes after exposure. It can be seen that the chlorine dioxide demands were relatively high.

Where [5] appears, read: 5 ppm, dilute nutrient solution.
Where [6] appears, read: 10 ppm, dilute nutrient solution.
[7] abbreviates: apple juice, Brix 11.4, exposed concentration 5 ppm.
[8] abbreviates: apple juice, Brix 11.4, exposed concentration 10 ppm.
[9] abbreviates: apple juice, Brix 11.4, exposed concentration 25 ppm.
[10] abbreviates: apple juice, Brix 11.4, exposed concentration 60 ppm.
Where [11] appears, read: carrot juice, Brix 8.8, exposed concentration 5 ppm.
[12] abbreviates: carrot juice, Brix 8.8, exposed concentration 10 ppm.
Setting [13] is: carrot juice, Brix 8.8, exposed concentration 25 ppm.
[14] abbreviates: carrot juice, Brix 8.8, exposed concentration 60 ppm.

`CC(=O)OO` [PAA, peracetic acid]: the “PAA concentration (below detectable limit)” value in data set [1] (20 ppm PAA in apple juice (Brix=11.4)) and in data set [1] (20 ppm PAA in carrot juice (Brix=8.8)) was < 0.89 ppm throughout. In addition, the half-life at 100 ppm in data set [1] (100 ppm solution of PAA in apple juice (Brix=11.4)) is < 30 min; in data set [1] (100 ppm solution of PAA in carrot juice (Brix=8.8)) it was < 20 min. The PAA read in data set [1] (apple juice, Brix 11.4, PAA dosed 20 ppm, 90° C., 10 min, followed by 5 min in ice) was <0.98 ppm; in data set [1] (apple juice, Brix 11.4, PAA dosed 100 ppm, 22° C., 60 min), 19.6 ppm; in data set [1] (apple juice, Brix 11.4, PAA dosed 100 ppm, 90° C., 10 min, followed by 5 min in ice), 15.7 ppm; in data set [1] (carrot juice, Brix 8.8, PAA dosed 20 ppm, 90° C., 10 min, followed by 5 min in ice), <0.98 ppm; in data set [1] (carrot juice, Brix 8.8, PAA dosed 100 ppm, 22° C., 60 min), 3.92 ppm; in data set [1] (carrot juice, Brix 8.8, PAA dosed 100 ppm, 90° C., 10 min, followed by 5 min in ice), 2.94 ppm. In addition, the “loss in cell viability” value in data set [2] (PAA dose as low as 0.35 ppm, 10 minutes) is on record as “substantial loss in cell viability”. Further, the “reduction in the bacteria” value in data set [2] (all PAA-treated samples, 1×10^7 CFU/ml challenge, 10 minutes (FIG. 4)) is > 4 log; in data set [3], > 4 log. Further, the LR in data set [3] (5 ppm, apple juice) was 4.34; in data set [3] (5 ppm, carrot juice), 4.18; in data set [3] (setting [5]), 4.18; in data set [3] (10 ppm, apple juice), 4.48; in data set [3] (10 ppm, carrot juice), 4.34; in data set [3] (setting [6]), 4.51.

In the case of `[O][Cl+][O-]` [chlorine dioxide], the Demand was >4.95 ppm in data set [4] (setting [7]); 9.32 ppm in data set [4] (setting [8]); 24.3 ppm in data set [4] (setting [9]); 57.8 ppm in data set [4] (setting [10]); >4.95 ppm in data set [4] (setting [11]); >9.95 ppm in data set [4] (setting [12]). Also, the Demand was >24.97 ppm in data set [4] (setting [13]) and 59.87 ppm in data set [4] (setting [14]). The “Read Concentration” value in data set [4] (setting [7]) is recorded as <0.05 ppm; in data set [4] (setting [8]) it was 0.68 ppm; in data set [4] (setting [9]), 0.7 ppm; in data set [4] (setting [10]), 2.2 ppm; in data set [4] (setting [11]), <0.05 ppm; in data set [4] (setting [12]) it was <0.05 ppm. Moreover, the entries for the “Read Concentration” value in data set [4] (setting [13]) and in data set [4] (setting [14]) were <0.05 ppm and 0.13 ppm, respectively. Further, the LR in data set [3] (5 ppm, apple juice) turned out to be 0.65; in data set [3] (5 ppm, carrot juice) it was 1.12; in data set [3] (setting [5]) it was 1.34; in data set [3] (10 ppm, apple juice), 1.18; in data set [3] (10 ppm, carrot juice), 1.57; in data set [3] (setting [6]), 1.24. For the same compound, the “reduction in the bacteria” value in data set [3] is ~1 log.

In general, half-life refers to the time needed for the level to fall by half in the phase considered.
